In patent US5110976A, “Insecticidal composition comprising more than one active ingredient” (priority 1985, dated 1992):

Tests used:
[1] = tested on: T. confusum; assay: Contact method, synergism between stereoisomers (Table 2); format: in vivo; conditions: Tribolium confusum, 24 h
Protocol: The stereoisomers are dissolved in a 1:2 mixture of mineral oil and acetone and filter paper discs (Whatman No. 1., diameter 9 cm) are impregnated with the corresponding dosage of the solution of the active ingredient. The acetone is allowed to evaporate and the insects are examined on filter paper discs placed into Petri-dishes. Three parallels are used for each dose and 15 animals are placed in each Petri-dish. Mortality rate is determined after 24 hours. The corrected mortality % data are calculated by means of the Abbot formula.
The test is carried out on T. confusum and the following results are obtained by the contact method for various active ingredient doses.
The test is carried out according to the method described in Example 20.

[2] = tested on: T. confusum; assay: Topical LD50 (Table 3); format: in vivo, 1-2 weeks' old imagos; conditions: topical, abdominal side
Protocol: (§1) In Table 3 the LD50 values of the Ig and Ii isomers and those of the Ib isomer-pair are disclosed. The data are topically measured.
(§2) The active ingredients are dissolved in 2-ethoxyethanol (cellosolve) and 0.3 μl droplets of the solutions are applied onto the dorsal cuticulum of 3-5 days' old female house flies. 10 animals are used and 2 parallels are carried out for each dose. The tests are carried out for 5 dose levels between activity limits of 0% and 100%. After treatment the flies are placed into glass vials. Mortality is determined after 24 hours. Data are transformed to log10 dosage and probit mortality. LD50 and confidence interval values are calculated by linear regression analysis of the log-probit data. The expected values required for the calculation of synergism are obtained by means of harmonic average. The synergistic factor is the quotient of the expected and measured values.
The active ingredients are dissolved in 2-ethoxyethanol and 0.3 μl droplets of the solutions are applied onto the abdominal side of 1-2 weeks' old imagos. Treatment is carried out with 2 parallels and 20 animals for each dose by using 5 dose levels in the range between activity limits of 0% and 100%. Evaluation and determination of LD50 values and synergistic factors are carried out as described in Example 21.

[3] = tested on: Musca domestica; assay: Topical LD50 (Table 3); format: in vivo, house fly (Musca domestica), 3-5 days' old females; conditions: topical, dorsal cuticulum; 24 hours
Protocol: as §1, §2

[4] = tested on: Musca domestica; assay: Filter paper disc contact test (Table 11); format: in vivo, house fly (Musca domestica); conditions: Musca domestica, 24 h
Protocol: In Table 1 the activity of various stereoisomers of cypermethrin on the house fly (Musca domestica) is shown.
(§3) The active ingredient is dissolved in a 1:2 mixture of oil and acetone; filter paper discs (Whatman No. 1, diameter 9 cm) are impregnated with the solutions of the corresponding stereoisomers and enantiomer-pairs, respectively. The acetone is allowed to evaporate, whereupon the insects are exposed to filter papers discs placed in Petri-dishes. Three parallels are used on each dose and 15 insects are placed into each Petri-dish. The percental mortality is determined after 24 hours. The corrected percent mortality is calculated by means of the Abbot Formula.

[5] = tested on: Tribolium confusum; assay: Contact test on Tribolium confusum (Table 12); format: in vivo; conditions: Tribolium confusum, 24 h
Protocol: as §3
It appears from Table 12 that the increased activity shown in Example 41 is due to the synergistic effect of the trans-isomers to Tribolium confusum.

[6] = tested on: T. confusum; assay: Activity as function of time, toxic symptoms (Table 16); format: in vivo, flour beetle (T. confusum), imagos
Protocol: as §3
Activity of cypermethrin stereoisomer-pairs as function of time on flour beetle (T. Confusum).
Flour beetle (T. confusum) imagos are exposed in Petri-dishes according to the method described in Example 43. For each dose 3 parallels are used and 15 animals are applied for each parallel test. In each point of time the insects lying on their backs are counted and the percental results are expressed in Table 16.

[7] = tested on: Musca domestica; conditions: bioresmetrine = 100; cited from earlier work
[8] = tested on: Phaedon cochleariae; conditions: bioresmetrine = 100; cited from earlier work

`CC1(C)[C@H](C=C(Cl)Cl)[C@H]1C(=O)O[C@H](C#N)c1cccc(Oc2ccccc2)c1` [Ig] showed a mortality at 110 µg/disc ([1]; 0.11 mg/disc) of 80%, a mortality at 330 µg/disc ([1]; 0.33 mg/disc) of 94% and a mortality at 1000 µg/disc ([1]; 1.00 mg/disc) of 100%. For the same compound, the mortality at 3000 µg/disc ([1]; 3.00 mg/disc) was 100%, the LD50 measured [2] was 73.6 ng/insect and the LD50 measured [3] was 13.4 ng/insect. For the same compound, the mortality at 40 µg/disc ([4]; 0.04 mg/disc) was 48%, the mortality at 110 µg/disc ([4]; 0.11 mg/disc) was 68% and the mortality at 330 µg/disc ([4]; 0.33 mg/disc) was 83%. The mortality at 1000 µg/disc ([4]; 1.00 mg/disc) was 100%, the mortality at 3000 µg/disc ([4]; 3.00 mg/disc) was 100% and the mortality at 110 µg/disc ([5]; 0.11 mg/disc) was 70%. The mortality at 330 µg/disc ([5]; 0.33 mg/disc) was 92%, the mortality at 1000 µg/disc ([5]; 1.00 mg/disc) was 100% and the mortality at 3000 µg/disc ([5]; 3.00 mg/disc) was 100%. The “% of insects showing toxic symptoms” value ([6]; 30 minutes) was 0%, the “% of insects showing toxic symptoms” value ([6]; 30 minutes, 0.33 mg/disc) was 0% and the “% of insects showing toxic symptoms” value ([6]; 30 minutes, 1.00 mg/disc) was 15%. The “% of insects showing toxic symptoms” value ([6]; 30 minutes, 3.00 mg/disc) was 68%, the “% of insects showing toxic symptoms” value ([6]; 60 minutes) was 18% and the “% of insects showing toxic symptoms” value ([6]; 60 minutes, 0.33 mg/disc) was 34%. For the same compound, the “% of insects showing toxic symptoms” value ([6]; 60 minutes, 1.00 mg/disc) was 98%, the “% of insects showing toxic symptoms” value ([6]; 60 minutes, 3.00 mg/disc) was 100% and the “% of insects showing toxic symptoms” value ([6]; 120 minutes) was 30%. The “% of insects showing toxic symptoms” value ([6]; 120 minutes, 0.33 mg/disc) was 70%, the “% of insects showing toxic symptoms” value ([6]; 120 minutes, 1.00 mg/disc) was 100% and the “% of insects showing toxic symptoms” value ([6]; 120 minutes, 3.00 mg/disc) was 100%. For the same compound, the “% of insects showing toxic symptoms” value ([6]; 180 minutes) was 34%, the “% of insects showing toxic symptoms” value ([6]; 180 minutes, 0.33 mg/disc) was 84% and the “% of insects showing toxic symptoms” value ([6]; 180 minutes, 1.00 mg/disc) was 100%. The “% of insects showing toxic symptoms” value ([6]; 180 minutes, 3.00 mg/disc) was 100%, the “activity related to bioresmetrine (100)” value [7] was 1400 and the “activity related to bioresmetrine (100)” value [8] was 2200.
